# In patent US7994129B2, “Methods of using black bear parathyroid hormone” (Michigan Technological University, priority 2005, dated 2011):
# “Also recorded” adds a separate entry of the source.
# B1: Human PTH: human parathyroid hormone given once daily to humans (protein, UniProt P01270 32-115, looked up)
# Parathyroid hormone: SVSEIQLMHNLGKHLNSMERVEWLRKKLQDVHNFVALGAPLAPRDAGSQRPRKKEDNVLVESHEKSLGEADKADVNVLTKAKSQ
# modifications: Parathyroid hormone
# What was measured:
# rats = settings: cited from earlier work; for osteosarcoma on long-term usage: rats
# [1] = men and women who can lose 20-30% of cortical and cancellous bone; cited from earlier work
# MC-3T3 cells = test: Gene expression by real-time PCR in MC-3T3 cells incubated with synthetic bear or human PTH 1-34 (Example 11); assay type: cell-based; settings: 100 nM; for expression ratio of Bax/Bcl-2: 3 hours, MC-3T3 cells (FIG. 7, n=4); for expression of type I collagen / expression of osteocalcin: 6 hours, MC-3T3 cells; for expression of type I collagen: compared to the vehicle control; for expression of osteocalcin: compared to the vehicle control (FIG. 6, n=2)
# Protocol: MC-3T3 cells were incubated in vehicle or 100 nM synthetic bear or human PTH 1-34 for 3 or 6 hours (n=2 or 4). Total RNA was isolated, and cDNA was generated with reverse transcription. Primers for the bone matrix proteins type I collagen and osteocalcin, the pro-apoptotic protein Bax, the anti-apoptotic protein Bcl-2, and the housekeeping genes Gapdh, β-actin, and cyclophillin were designed using PrimerQuest software (Integrated DNA Technologies, Coralville, Iowa). Real-time PCR was performed using the Mx3000P real-time PCR system (Stratagene, LaJolla, Calif.). All samples were measured in duplicate. Gene expression was determined using the relative standard curve method normalized to the geometric mean of the three housekeeping genes (Gapdh, β-actin, and cyclophillin). Apoptosis-related genes were analyzed as the expression ratio of Bax/Bcl-2, since a decrease in this ratio is associated with decreased apoptosis in vitro.
# [2] = test system: MC-3T3 osteoblastic cells and MLO-Y4 osteocytic cells; test: Gene expression in bone cell lines by real-time PCR (Example 7); assay type: cell-based; settings: 100 nM PTH polypeptide, 1 or 3 hours
# Protocol: Full-length recombinant black bear PTH (residues 1-84) is produced and its effects on levels of gene expression in bone cell lines (MC-3T3 osteoblastic cells and MLO-Y4 osteocytic cells) are investigated and are compared to results obtained using recombinant human PTH 1-84. Equivalent experiments are conducted using subfragments of black bear and human PTH, the subfragments including amino acid residues 1-34, 1-36, 7-84, 11-84, and 41-52 of the full-length (1-84) mature protein. For some experiments, black bear and human PTH polypeptides are synthesized with solid-phase methods.
# To determine the effect of black bear and human PTH on regulation of bone matrix, transcriptional regulatory, anti-apoptosis (Bcl-2) genes, and the pro-apoptosis gene Bax, cells are cultured for 1 or 3 hours with human or bear PTH 1-84 or a subfragment. Gene expression is quantified with real-time PCR. […]
# Reverse transcription to generate cDNA is performed using Superscript II reverse transcriptase (Invitrogen, Carlsbad, Calif.), and 0.5 μg Oligo(dT) 12-18 primer at 42° C. for 20 minutes, 50° C. for 10 minutes and 42° C. for 1 hour in a gradient thermocycler (Mastercycler gradient, Eppendorf, Westbury, N.Y.). […] Gene expression is determined using the relative standard curve method normalized to the geometric mean of the three housekeeping genes. […]
# ovariectomized rats = settings: cited from earlier work
# procollagen-1 mRNA = settings: Nasu et al., 1998; cited from earlier work
# [3] = humans, once daily; cited from earlier work
molecule,measurement,setting,value
CC[C@H](C)[C@H](NC(=O)[C@H](CCC(=O)O)NC(=O)[C@H](CO)NC(=O)[C@@H](NC(=O)[C@@H](N)CO)C(C)C)C(=O)N[C@@H](CCC(N)=O)C(=O)N[C@@H](CC(C)C)C(=O)N[C@@H](CCSC)C(=O)N[C@@H](Cc1cnc[nH]1)C(=O)N[C@@H](CC(N)=O)C(=O)N[C@@H](CC(C)C)C(=O)NCC(=O)N[C@@H](CCCCN)C(=O)N[C@@H](Cc1cnc[nH]1)C(=O)N[C@@H](CC(C)C)C(=O)N[C@@H](CC(N)=O)C(=O)N[C@@H](CO)C(=O)N[C@@H](CCSC)C(=O)N[C@@H](CCC(=O)O)C(=O)N[C@@H](CCCN=C(N)N)C(=O)N[C@H](C(=O)N[C@@H](CCC(=O)O)C(=O)N[C@@H](Cc1c[nH]c2ccccc12)C(=O)N[C@@H](CC(C)C)C(=O)N[C@@H](CCCN=C(N)N)C(=O)N[C@@H](CCCCN)C(=O)N[C@@H](CCCCN)C(=O)N[C@@H](CC(C)C)C(=O)N[C@@H](CCC(N)=O)C(=O)N[C@@H](CC(=O)O)C(=O)N[C@H](C(=O)N[C@@H](Cc1cnc[nH]1)C(=O)N[C@@H](CC(N)=O)C(=O)N[C@@H](Cc1ccccc1)C(=O)O)C(C)C)C(C)C [LY333334],osteosarcoma on long-term usage,rats,generates osteosarcoma
"ALX1-11: recombinant human PTH 1-84 (NPS Pharmaceuticals), under consideration for FDA approval",osteosarcoma on long-term usage,rats,generates osteosarcoma
same,lost bone recovered during suggested treatment regimen,[1],8%
"bear PTH 1-34: synthetic polypeptide of amino acid residues 1-34 of black bear parathyroid hormone, SEQ ID NO: 2 (SVSEIQFMHNLGKHLSSMERVEWLRKKLQDVHNF; listed as Ursus americanus)",expression ratio of Bax/Bcl-2,MC-3T3 cells,decreased
same,expression ratio of Bax/Bcl-2,MC-3T3 cells; listed as black bear PTH 1-34,decreases
same,expression of type I collagen,MC-3T3 cells,did not affect
same,expression of osteocalcin,MC-3T3 cells,substantially upregulated
same,expression of osteocalcin,MC-3T3 cells; listed as black bear PTH 1-34,upregulate
same,"gene expression (bone matrix, transcriptional regulatory and transcriptional activator genes)",[2],upregulates
"bovine PTH 1-34: bovine PTH 1-34; rat PTH 1-34 has 5 amino acid sequence differences from it (AVSEIQFMHNLGKHLSSMERVEWLRKKLQDVHNF; Parathyroid hormone; UniProt P01268 32-65, looked up, fragment)",greater bone formation response than to rat PTH 1-34,ovariectomized rats; daily 25 μg injections,25%
same,greater increase in bone volume fraction during treatment,"ovariectomized rats; injection, versus rat PTH 1-34",37%
"human PTH 1-34: synthetic human PTH 1-34, the 1-34 region of human PTH, used as comparator (SVSEIQLMHNLGKHLNSMERVEWLRKKLQDVHNF; Parathyroid hormone; UniProt P01270 32-65, looked up, fragment)",production of procollagen-1 mRNA,procollagen-1 mRNA,down-regulates
same,expression ratio of Bax/Bcl-2,MC-3T3 cells,increases
same,expression of type I collagen,MC-3T3 cells,did not affect
same,expression of osteocalcin,MC-3T3 cells,substantially upregulated; also recorded: upregulate
"human PTH 1-84: full-length human parathyroid hormone, residues 1-84",rate of carcinogenicity compared with human PTH 1-34,rats; preliminary results,lower
B1,bone mass,[3],increases
same,fracture incidence,[3],decreases
